Measured values reported in US8859584B2, “TRPV1 antagonists” (AbbVie Inc., priority 2011, dated 2014).
Read-outs that look alike come from different tables or passages of the source.

Key:
[1] = target: T1, human TRPV1 (Homo sapiens, UniProt Q8NER1); test: Capsaicin Activation Assay (FLIPR intracellular Ca2+, recombinant HEK293 cells); format: cell-based
T1 construct: expressed in transfected cells
Method: (i) Capsaicin Activation Assay
Dulbecco's modified Eagle medium (DMEM) (with 4.5 mg/mL glucose) and fetal bovine serum were obtained from Hyclone Laboratories, Inc. (Logan, Utah). Dulbecco's phosphate-buffered saline (DPBS) (with 1 mg/mL glucose and 3.6 mg/l Na pyruvate, without phenol red), L-glutamine, hygromycin B, and Lipofectamine® were obtained from Life Technologies (Grand Island, N.Y.). G418 sulfate was obtained from Calbiochem-Novabiochem Corp. (San Diego, Calif.). Capsaicin (8-methyl-N-vanillyl-6-nonenamide) was obtained from Sigma-Aldrich, Co. (St. Louis, Mo.). Fluo-4 AM (N-[4-[6-[(acetyloxy)-methoxy]-2,7-difluoro-3-oxo-3H-xanthen-9-yl]-2-[2-[2-[bis[2-[(acetyloxy)methoxy]-2-oxyethyl]amino]-5-methylphenoxy]ethoxy]phenyl]-N-[2-[(acetyloxy)methoxy]-2-oxyethyl]-glycine, (acetyloxy)methyl ester) was purchased from Molecular Probes (Eugene, Oreg.).
(§1) Expression plasmids encoding the hTRPV1 cDNA were transfected into HEK293 cells using Lipofectamine®. Forty-eight hours after transfection, the neomycin-resistant cells were selected with growth medium containing 800 μg/mL Geneticin (Life Technologies, formerly Gibco BRL). Surviving individual colonies were isolated and screened for TRPV1 activity. Cells expressing recombinant TRPV1 were maintained at 37° C. in DMEM containing 4 mM L-glutamine, 300 μg/mL G418 (Calbiochem) and 10% fetal bovine serum under a humidified 5% CO2 atmosphere.
The functional activity of compounds at the TRPV1 receptor was determined by measurement of intracellular Ca^2+ levels ([Ca^2+]i) using the Fluorescence Imaging Plate Reader (FLIPR)TETRA®. All compounds were tested over a 12-point one-third-log concentration range. Compound stocks, 10 mM, were prepared in DMSO, and diluted serially across a 384-well plate using a Bravo BenchCel workstation (Agilent Technologies, Santa Clara, Calif.). A stock concentration of capsaicin (10 mM) was made in DMSO, and diluted in DPBS to a final concentration of 200 nM (4×). On the day prior to the experiment, the recombinant HEK293 cells expressing human TRPV1 (hTRPV1) were removed from tissue culture flasks and plated in growth medium into black-walled clear-bottom 384-well Biocoat™ poly-D-lysine assay plates (BD Biosciences, Bedford, Mass.) using a Multidrop® dispenser (ThermoScientific, Waltham, Mass.). […] The plated cells were incubated for 90-120 minutes in the dark at room temperature and then test compound was added to each well. Three minutes later, 200 nM capsaicin (4×) solution was added to each well in an amount sufficient to provide a final assay volume of 80 μL and capsaicin concentration of 50 nM. Fluorescence readings were made at 1 to 5 second intervals over the course of the experimental run. The peak increase in relative fluorescence units (minus baseline) was calculated, and expressed as a percentage of the 50 nM capsaicin (control) response.

[2] = target: T1, human TRPV1; test: Acid Activation Assay (pH 5.0, FLIPR intracellular Ca2+, recombinant HEK293 cells); format: cell-based; conditions: percentage of maximal pH 5.0-induced response remaining; HEK293 hTRPV1; max concentration 37.5 μM
Method: (ii) Acid Activation Assay
Dulbecco's modified Eagle's medium (DMEM) with 4.5 mg/mL D-glucose, fetal bovine serum, L-glutamine, and 2-morpholinoethanesulfonic acid (MES) were purchased from Sigma-Aldrich Co. (St. Louis, Mo.). […] The FLIPR® Calcium 4 assay kit was purchased from Molecular Devices (Sunnyvale, Calif.).
as §1
The functional activity of compounds at the TRPV1 receptor was determined by measurement of intracellular Ca^2+ levels ([Ca^2+]i) using the Fluorescence Imaging Plate Reader (FLIPR)TETRA®. […] Compound stocks, 10 mM, were prepared in DMSO, and diluted serially across a 384-well plate using a Bravo BenchCel workstation (Agilent Technologies, Santa Clara, Calif.). On the day prior to the experiment, the recombinant HEK293 cells expressing human TRPV1 (hTRPV1) were removed from tissue culture flasks and plated in growth medium into black-walled clear-bottom 384-well Biocoat™ poly-D-lysine assay plates (BD Biosciences, Bedford, Mass.) using a Multidrop® dispenser (ThermoScientific, Waltham, Mass.). […] The plated cells were incubated for 90-120 min in the dark at 25° C. The test compounds dissolved in DMSO were then added to the plates using an Agilent Bravo workstation (Agilent Technologies Inc., Santa Clara, Calif.). Three minutes later, a pH 5.0 solution was added to each well. Reagents were delivered at a rate of 40 μL/sec, and the final assay volume was 80 μL. Acidic pH solutions were prepared by titration of DPBS/MES with 1 N HCl. The intensity of the fluorescence was captured and digitally transferred to an interfaced PC. The maximum peak measured for the concentration range tested was used to calculate the corresponding peak increase in fluorescence over baseline (relative fluorescence units) which was expressed as the percentage (max % remain) of the maximal pH 5.0-induced response.

[3] = recombinant HEK293 cells expressing hTRPV1, 50 nM capsaicin, read-out: human TRPV1 capsaicin IC50

T1 sequence (Q8NER1 whole entry): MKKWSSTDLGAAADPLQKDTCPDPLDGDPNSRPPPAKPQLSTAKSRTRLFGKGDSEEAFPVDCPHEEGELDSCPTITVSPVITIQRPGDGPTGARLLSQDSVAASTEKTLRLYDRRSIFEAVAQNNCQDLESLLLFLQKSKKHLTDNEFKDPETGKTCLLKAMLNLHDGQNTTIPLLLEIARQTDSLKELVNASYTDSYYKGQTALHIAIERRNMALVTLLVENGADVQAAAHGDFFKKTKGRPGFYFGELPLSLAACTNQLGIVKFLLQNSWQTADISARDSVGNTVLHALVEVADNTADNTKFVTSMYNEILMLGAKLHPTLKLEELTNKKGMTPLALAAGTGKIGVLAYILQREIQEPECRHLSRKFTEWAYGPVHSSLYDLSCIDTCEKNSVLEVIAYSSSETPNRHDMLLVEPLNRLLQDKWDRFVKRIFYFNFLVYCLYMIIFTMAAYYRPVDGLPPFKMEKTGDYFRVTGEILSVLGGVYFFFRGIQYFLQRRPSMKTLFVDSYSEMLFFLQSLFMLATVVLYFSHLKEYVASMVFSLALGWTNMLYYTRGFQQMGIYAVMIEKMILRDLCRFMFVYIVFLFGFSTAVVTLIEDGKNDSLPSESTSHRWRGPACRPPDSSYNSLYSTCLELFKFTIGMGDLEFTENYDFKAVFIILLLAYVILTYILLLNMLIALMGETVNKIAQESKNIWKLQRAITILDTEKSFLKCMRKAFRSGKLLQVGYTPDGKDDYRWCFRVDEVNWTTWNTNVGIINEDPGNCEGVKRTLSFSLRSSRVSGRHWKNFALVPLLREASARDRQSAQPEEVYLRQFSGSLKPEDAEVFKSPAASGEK

Compound | IC50 [1, 3] [nM] | human TRPV1 H+ (max % remain) [2] [%] | IC50 [1] [nM]
O=C(Nc1cccc2c1C[C@H](O)C2)N[C@@H]1CC(CF)(CF)Oc2ccc(F)cc21 [Example 57, 1-[(4R)-6-fluoro-2,2-bis(fluoromethyl)-3,4-dihydro-2H-chromen-4-yl]-3-[(2R)-2-hydroxy-2,3-dihydro-1H-inden-4-yl]urea] | 570 | 63 | 
CCCC1(CCC)C[C@@H](NC(=O)Nc2cccc3c2C[C@H](O)C3)c2cccc(F)c2O1 [Example 59, 1-[(4R)-8-fluoro-2,2-dipropyl-3,4-dihydro-2H-chromen-4-yl]-3-[(2R)-2-hydroxy-2,3-dihydro-1H-inden-4-yl]urea] | 23 | 99 | 
O=C(Nc1ccc(F)c2c1C[C@@H](O)C2)N[C@@H]1CC(CF)(CF)Oc2ccccc21 [Example 169, 1-[(4R)-2,2-bis(fluoromethyl)-3,4-dihydro-2H-chromen-4-yl]-3-[(2R)-7-fluoro-2-hydroxy-2,3-dihydro-1H-inden-4-yl]urea] | 3400 | 57 | 
CC(=O)Nc1nc2c(Oc3cc(-c4ccc(C(F)(F)F)cc4)ncn3)cccc2s1 [A, reference compound] | 20 | 10 | 
COc1ccc(CC2COc3ccccc3C2NC(=O)Nc2cccc3c2CC(O)C3)cc1OC (stereo not drawn) [Example 109, 1-[3-(3,4-dimethoxybenzyl)-3,4-dihydro-2H-chromen-4-yl]-3-(2-hydroxy-2,3-dihydro-1H-inden-4-yl)urea] | 3100 | 89 | 
O=C(Nc1cccc2c1C[C@H](O)C2)N[C@@H]1CCOc2c1cccc2C(F)(F)F [Example 18, 1-[(2R)-2-hydroxy-2,3-dihydro-1H-inden-4-yl]-3-[(4R)-8-(trifluoromethyl)-3,4-dihydro-2H-chromen-4-yl]urea] | 26 | 58 | 
O=C(Nc1ccc(F)c2c1CC(O)C2)NC1CCc2cc(C(F)(F)F)ccc21 (stereo not drawn) [Example 155, 1-(7-fluoro-2-hydroxy-2,3-dihydro-1H-inden-4-yl)-3-[5-(trifluoromethyl)-2,3-dihydro-1H-inden-1-yl]urea] | 42 | 19 | 
O=C(Nc1cccc2c1C[C@@H](O)C2)N[C@@H]1CC(CF)(CF)Oc2c1ccc(Cl)c2F [Example 81, 1-[(4R)-7-chloro-8-fluoro-2,2-bis(fluoromethyl)-3,4-dihydro-2H-chromen-4-yl]-3-[(2S)-2-hydroxy-2,3-dihydro-1H-inden-4-yl]urea] | 59 | 11 | 
O=C(Nc1cccc2c1CC(O)C2)NC1c2ccccc2OCC1c1ccccc1 (stereo not drawn) [Example 108, 1-(2-hydroxy-2,3-dihydro-1H-inden-4-yl)-3-(3-phenyl-3,4-dihydro-2H-chromen-4-yl)urea] | 8000 | 97 | 
O=C(Nc1cccc2c1C[C@H](O)C2)N[C@@H]1CCc2cc(Cl)ccc21 [Example 39, 1-[(1R)-5-chloro-2,3-dihydro-1H-inden-1-yl]-3-[(2R)-2-hydroxy-2,3-dihydro-1H-inden-4-yl]urea] | 25 | 46 | 
CC1(C)C[C@@H](NC(=O)Nc2ccc(F)c3c2C[C@H](O)C3)c2cccc(C(F)(F)F)c2O1 [Example 135, 1-[(4R)-2,2-dimethyl-8-(trifluoromethyl)-3,4-dihydro-2H-chromen-4-yl]-3-[(2S)-7-fluoro-2-hydroxy-2,3-dihydro-1H-inden-4-yl]urea] | 42 | 3 | 
O=C(Nc1cccc2c1C[C@H](O)C2)N[C@@H]1CC(CF)(CF)Oc2cc(F)ccc21 [Example 129, 1-[(4R)-7-fluoro-2,2-bis(fluoromethyl)-3,4-dihydro-2H-chromen-4-yl]-3-[(2R)-2-hydroxy-2,3-dihydro-1H-inden-4-yl]urea] | 360 | 53 | 
O=C(Nc1cccc2c1C[C@@H](O)C2)N[C@@H]1CCOc2cc(OC(F)(F)F)ccc21 [Example 37, 1-[(2S)-2-hydroxy-2,3-dihydro-1H-inden-4-yl]-3-[(4R)-7-(trifluoromethoxy)-3,4-dihydro-2H-chromen-4-yl]urea] | 17 | 4 | 
CC(C)(C)c1ccc(Nc2ncnc3cc(-c4ncccc4C(F)(F)F)ccc23)cc1 [B, reference compound] | 55 | 1 | 
O=C(Nc1ccc(F)c2c1C[C@H](O)C2)N[C@@H]1CC(CF)(CF)Oc2c1ccc(Cl)c2F [Example 144, 1-[(4R)-7-chloro-8-fluoro-2,2-bis(fluoromethyl)-3,4-dihydro-2H-chromen-4-yl]-3-[(2S)-7-fluoro-2-hydroxy-2,3-dihydro-1H-inden-4-yl]urea] | 400 | 2 | 
CC1(C)C[C@@H](NC(=O)Nc2cccc3c2C[C@H](O)C3)c2cccc(C(F)(F)F)c2O1 [Example 29, 1-[(4R)-2,2-dimethyl-8-(trifluoromethyl)-3,4-dihydro-2H-chromen-4-yl]-3-[(2R)-2-hydroxy-2,3-dihydro-1H-inden-4-yl]urea] | 15 | 72 | 
CC1(C)C[C@@H](NC(=O)Nc2cccc3c2C[C@H](O)C3)c2ccc(C(F)(F)F)cc2O1 [Example 3, 1-[(4R)-2,2-dimethyl-7-(trifluoromethyl)-3,4-dihydro-2H-chromen-4-yl]-3-[(2R)-2-hydroxy-2,3-dihydro-1H-inden-4-yl]urea] | 27 | 55 | 
O=C(Nc1ccc(F)c2c1C[C@@H](O)C2)N[C@@H]1CC(CF)(CF)Oc2ccc(F)cc21 [Example 161, 1-[(4R)-6-fluoro-2,2-bis(fluoromethyl)-3,4-dihydro-2H-chromen-4-yl]-3-[(2R)-7-fluoro-2-hydroxy-2,3-dihydro-1H-inden-4-yl]urea] | 3900 | 47 | 
C[C@@]1(CF)C[C@@H](NC(=O)Nc2cccc3c2C[C@H](O)C3)c2ccc(C(F)(F)F)cc2O1 [Example 44, 1-[(2S,4R)-2-(fluoromethyl)-2-methyl-7-(trifluoromethyl)-3,4-dihydro-2H-chromen-4-yl]-3-[(2R)-2-hydroxy-2,3-dihydro-1H-inden-4-yl]urea] | 42 | 52 | 
CCC1(CC)C[C@@H](NC(=O)Nc2cccc3c2C[C@H](O)C3)c2ccc(OC(F)(F)F)cc2O1 [Example 60, 1-[(4R)-2,2-diethyl-7-(trifluoromethoxy)-3,4-dihydro-2H-chromen-4-yl]-3-[(2R)-2-hydroxy-2,3-dihydro-1H-inden-4-yl]urea] | 52 | 23 | 
O=C(Nc1ccc(F)c2c1C[C@H](O)C2)N[C@@H]1CC(CF)(CF)Oc2cc(Cl)ccc21 [Example 134, 1-[(4R)-7-chloro-2,2-bis(fluoromethyl)-3,4-dihydro-2H-chromen-4-yl]-3-[(2S)-7-fluoro-2-hydroxy-2,3-dihydro-1H-inden-4-yl]urea] |  | 3 | 349
